The values below come from publication PMC2810234, “Lyngbyastatins 8–10, Elastase Inhibitors with Cyclic Depsipeptide Scaffolds Isolated from the Marine Cyanobacterium Lyngbya semiplena” (Marine Drugs, 2009).

This test concerns the target T1, porcine pancreatic elastase (Sus scrofa, UniProt P00772).
T1 construct: purchased EPC (Elastin Products Company) EC134
Nature of the test: Inhibition of porcine pancreatic elastase. It is filed as biochemical. Conditions: elastase stock 75 μg/mL (5 μL), Tris-HCl pH 8.0; compound 1 μL in DMSO; preincubated 15 min at room temperature; substrate 2 mM N-succinyl-Ala-Ala-Ala-p-nitroanilide solution (15 μL); absorbance 405 nm every 30 s, initial slope vs uninhibited; triplicate. Here is the method: A stock solution of porcine pancreatic elastase (Elastase-high purity; EPC, EC134) was prepared at a concentration of 75 μg/mL in Tris-HCl (pH 8.0). Aliquots of test compounds (1 μL, DMSO) were preincubated with 79 μL Tris-HCl (pH 8.0) and 5 μL elastase stock for 15 min at room temperature in a microtiter plate. After this time, 15 μL substrate solution was added (2 mM N-succinyl-Ala-Ala-Ala-p-nitroanilide in Tris-HCl, pH 8.0) to each well, and the reaction was followed by measuring the absorbance at 405 nm every 30 s. Enzyme activity was determined by calculating the initial slope of each progress curve, expressed as a percentage of the slope of the uninhibited reaction.

T1 sequence (P00772 27-266): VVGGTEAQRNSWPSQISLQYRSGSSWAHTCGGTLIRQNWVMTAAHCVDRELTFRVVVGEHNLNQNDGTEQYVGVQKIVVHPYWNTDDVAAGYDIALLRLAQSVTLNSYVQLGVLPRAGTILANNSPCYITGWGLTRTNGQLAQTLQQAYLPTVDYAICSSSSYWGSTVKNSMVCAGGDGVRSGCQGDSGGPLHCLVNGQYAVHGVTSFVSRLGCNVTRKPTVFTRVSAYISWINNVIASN

Consider `C/C=C1\NC(=O)[C@@H](NC(=O)[C@@H](NC(=O)[C@H](C)NC(C)=O)C(C)C)[C@@H](C)OC(=O)[C@H](C(C)C)NC(=O)[C@H](Cc2ccc(O)cc2)N(C)C(=O)[C@H](Cc2ccccc2)N2C(=O)[C@H](CC[C@H]2O)NC1=O` [Compound 1, Lyngbyastatin 8], for which half-maximal inhibition (IC50) required 123 ± 2 nM. For `C/C=C1\NC(=O)[C@@H](NC(=O)[C@@H](NC(=O)[C@H](C)NC(=O)CCC)C(C)C)[C@@H](C)OC(=O)[C@H](C(C)C)NC(=O)[C@H](Cc2ccc(O)cc2)N(C)C(=O)[C@H](Cc2ccccc2)N2C(=O)[C@H](CC[C@H]2O)NC1=O` [Compound 2, Lyngbyastatin 9], the IC50 – broadly, the concentration that inhibits the measured activity by half – came to 210 ± 10 nM. As to `C/C=C1\NC(=O)[C@@H](NC(=O)[C@@H](NC(=O)[C@H](C)NC(=O)CCC)C(C)C)[C@@H](C)OC(=O)[C@H](C(C)C)NC(=O)[C@H](Cc2ccc(O)c(Br)c2)N(C)C(=O)[C@H](Cc2ccccc2)N2C(=O)[C@H](CC[C@H]2O)NC1=O` [Compound 3, Lyngbyastatin 10], the IC50 is 120 ± 16 nM.
